Assay results from US8293764B2, “Compositions and methods for disruption of BRCA2-Rad51 interaction” (The Regents of the University of California, priority 2004, dated 2012).
Peptide text beside a SMILES is read from it. * marks the point of attachment. Cbz = O=C(OCc1ccccc1)*

Tested on: Rad51 in MCF-7 cells
Assay: Rad51 stability assay with cyclohexamide
Type: cell-based
Conditions: 1 μM MG132, IBR2 treated and control cells
Source text: To examine the impact of IBR2 on Rad51 protein expression, IBR2 treated MCF-7 cells was examined by straight western blot probed with a panel of antibodies against BRCA2, Rad51, Rad50, p84 and Rb. […] Consistent with our FACS analysis (FIG. 4A), the hypo-phosphorylated form of Rb, a marker for G1 phase, was the major form observed in the later time points, further confirming that IBR2 arrests cells at G1 phase (FIG. 4A). It has been reported that BRCA2 level is cell cycle dependent, which expresses low in G1 phase and peaks at G1/S boundary. Therefore the decreased level of BRCA2 in IBR2 treated cells may be due to G1 phase arrest. Different from BRCA2 protein, Rad51 protein is expressed constant throughout the cell cycle in MCF-7 cells (data not shown). Therefore, loss of Rad51 protein may be the direct effect of IBR2 treatment instead of the consequence of G1 arrest. […]
Western blot analysis: Cells were treated with […] or 50 μg/ml cycloheximide (CHX) or 1 μM MG132 and harvested at different time points for western blot analysis. […] The intensity of bands was quantified by densitometry using Labworks 4.5 software. The relative value of the band intensity was calculated with respect to that of untreated sample after normalization with the p84 signal.

## CC(C)C[C@@H](C=O)NC(=O)[C@H](CC(C)C)NC(=O)[C@H](CC(C)C)NC(=O)OCc1ccccc1 [MG132, reference compound] (Cbz-Leu-Leu-Leu-aldehyde)
  half-life of Rad51 with addition of MG132: prolonged
